Assay results taken from PubChem BioAssay (NCI).
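Test compounds were applied to cells in 96-well plates for 48 hours at 5 doses. TGI marks complete inhibition of growth.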

Assays:
Assay in all cases: NCI anticancer screen, dose series, 48 h
OVCAR-4 ovarian = tested on: OVCAR-4 ovarian
T-47D breast = tested on: T-47D breast
CAKI-1 renal = tested on: CAKI-1 renal
OVCAR-5 ovarian = tested on: OVCAR-5 ovarian
SNB-19 CNS = tested on: SNB-19 CNS
OVCAR-8 ovarian = tested on: OVCAR-8 ovarian
U251 CNS = tested on: U251 CNS
MDA-MB-435 = tested on: MDA-MB-435
HCT-15 colon = tested on: HCT-15 colon
MDA-MB-231 breast = tested on: MDA-MB-231 breast
HCT-116 colon = tested on: HCT-116 colon
IGROV1 ovarian = tested on: IGROV1 ovarian
HL-60(TB) leukemia = tested on: HL-60(TB) leukemia
RPMI-8226 leukemia = tested on: RPMI-8226 leukemia
NCI-H460 lung = tested on: NCI-H460 lung
A549 NSCLC = tested on: A549 NSCLC
M14 melanoma = tested on: M14 melanoma
PC-3 prostate = tested on: PC-3 prostate
UACC-62 melanoma = tested on: UACC-62 melanoma
K-562 leukemia = tested on: K-562 leukemia
MDA-N = tested on: MDA-N
NCI/ADR-RES ovarian = tested on: NCI/ADR-RES ovarian
UO-31 renal = tested on: UO-31 renal
SK-OV-3 ovarian = tested on: SK-OV-3 ovarian
NCI-H23 lung = tested on: NCI-H23 lung
RXF 393 renal = tested on: RXF 393 renal
MALME-3M melanoma = tested on: MALME-3M melanoma
SF-539 CNS = tested on: SF-539 CNS
NCI-H522 lung = tested on: NCI-H522 lung
A498 renal = tested on: A498 renal
HS 578T breast = tested on: HS 578T breast
TK-10 renal = tested on: TK-10 renal
SN12C renal = tested on: SN12C renal
HOP-92 NSCLC = tested on: HOP-92 NSCLC
SK-MEL-5 melanoma = tested on: SK-MEL-5 melanoma
ACHN renal = tested on: ACHN renal
MCF7 breast = tested on: MCF7 breast
SK-MEL-28 melanoma = tested on: SK-MEL-28 melanoma
HCC-2998 colon = tested on: HCC-2998 colon
SW-620 colon = tested on: SW-620 colon
UACC-257 melanoma = tested on: UACC-257 melanoma
DU-145 prostate = tested on: DU-145 prostate
SF-295 CNS = tested on: SF-295 CNS
BT-549 breast = tested on: BT-549 breast
SK-MEL-2 melanoma = tested on: SK-MEL-2 melanoma
COLO 205 colon = tested on: COLO 205 colon
KM12 colon = tested on: KM12 colon
OVCAR-3 ovarian = tested on: OVCAR-3 ovarian
HOP-62 NSCLC = tested on: HOP-62 NSCLC
EKVX NSCLC = tested on: EKVX NSCLC
CCRF-CEM leukemia = tested on: CCRF-CEM leukemia
SF-268 CNS = tested on: SF-268 CNS
HT29 colon = tested on: HT29 colon
MOLT-4 leukemia = tested on: MOLT-4 leukemia
LOX IMVI melanoma = tested on: LOX IMVI melanoma

COC(=O)C1=C(C(=O)OC)SC2(S1)C1=C(CCC1)SC(C(=O)OC)=C2C(=O)OC
TGI (OVCAR-4 ovarian): 28.9 µM
TGI (T-47D breast): 46.3 µM
TGI (CAKI-1 renal): 18.1 µM
TGI (OVCAR-5 ovarian): 34.6 µM
TGI (SNB-19 CNS): 36.8 µM
TGI (OVCAR-8 ovarian): 24.6 µM
TGI (U251 CNS): 29.2 µM
TGI (MDA-MB-435): 26 µM
TGI (HCT-15 colon): 21.5 µM
TGI (MDA-MB-231 breast): 33.4 µM
TGI (HCT-116 colon): 3.65 µM
TGI (IGROV1 ovarian): 26.6 µM
TGI (HL-60(TB) leukemia): > 100 µM
TGI (RPMI-8226 leukemia): > 100 µM
TGI (NCI-H460 lung): 20.2 µM
TGI (A549 NSCLC): 32.8 µM
TGI (M14 melanoma): 35.3 µM
TGI (PC-3 prostate): 23.3 µM
TGI (UACC-62 melanoma): 34 µM
TGI (K-562 leukemia): > 100 µM
TGI (MDA-N): 29.6 µM
TGI (NCI/ADR-RES ovarian): 39 µM
TGI (UO-31 renal): 22.7 µM
TGI (SK-OV-3 ovarian): 30.5 µM
TGI (NCI-H23 lung): 37 µM
TGI (RXF 393 renal): 16.7 µM
TGI (MALME-3M melanoma): 36 µM
TGI (SF-539 CNS): 4.32 µM
TGI (NCI-H522 lung): 9.08 µM
TGI (A498 renal): 22.7 µM
TGI (HS 578T breast): 35.4 µM
TGI (TK-10 renal): 29.1 µM
TGI (SN12C renal): 23.4 µM
TGI (HOP-92 NSCLC): 22.5 µM
TGI (SK-MEL-5 melanoma): 36 µM
TGI (ACHN renal): 24.8 µM
TGI (MCF7 breast): 22.4 µM
TGI (SK-MEL-28 melanoma): 25.3 µM
TGI (HCC-2998 colon): 33 µM
TGI (SW-620 colon): 37.5 µM
TGI (UACC-257 melanoma): 31.8 µM
TGI (DU-145 prostate): 15.8 µM
TGI (SF-295 CNS): 28.9 µM
TGI (BT-549 breast): 31.3 µM
TGI (SK-MEL-2 melanoma): 35.8 µM
TGI (COLO 205 colon): 42 µM
TGI (KM12 colon): 32.1 µM
TGI (OVCAR-3 ovarian): 24.6 µM
TGI (HOP-62 NSCLC): 26.2 µM
TGI (EKVX NSCLC): 29 µM
TGI (CCRF-CEM leukemia): 12.5 µM
TGI (SF-268 CNS): 34.4 µM
TGI (HT29 colon): 18.5 µM
TGI (MOLT-4 leukemia): 16.8 µM
TGI (LOX IMVI melanoma): 15.3 µM
